Experimental data: PubChem BioAssay (NCI)
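Grown in 96-well plates, cells were treated for 48 hours with each compound at five concentrations. Insufficient inhibition: endpoint recorded as highest concentration tested. The concentration for full growth arrest is given as TGI.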

Columns and labels:
Assay in all cases: NCI tumour cell line growth inhibition, 48 h
786-0 renal = test system: 786-0 renal
BT-549 breast = test system: BT-549 breast
CCRF-CEM leukemia = test system: CCRF-CEM leukemia
LOX IMVI melanoma = test system: LOX IMVI melanoma
MDA-MB-435 = test system: MDA-MB-435
OVCAR-3 ovarian = test system: OVCAR-3 ovarian
SF-539 CNS = test system: SF-539 CNS
SK-OV-3 ovarian = test system: SK-OV-3 ovarian
SR leukemia = test system: SR leukemia
SNB-19 CNS = test system: SNB-19 CNS

Compound	TGI (786-0 renal)	TGI (BT-549 breast)	TGI (CCRF-CEM leukemia)	TGI (LOX IMVI melanoma)	TGI (MDA-MB-435)	TGI (OVCAR-3 ovarian)	TGI (SF-539 CNS)	TGI (SK-OV-3 ovarian)	TGI (SR leukemia)	TGI (SNB-19 CNS)
C[C@]12CC[C@@H]3c4cc(C=O)c(OCc5ccccc5)cc4CC[C@H]3[C@@H]1CCC2OCc1ccccc1 (stereo not given in full)	> 100 µM	> 100 µM	> 100 µM	> 100 µM	> 100 µM	> 100 µM	> 100 µM	> 100 µM	> 100 µM	–
CC(C)(C)c1ccc(OCCOc2ccc(C(C)(C)C)cc2NC=O)c(NC=O)c1	37.8 µM	32.8 µM	> 45.3 µM	19.2 µM	26.9 µM	36.5 µM	21.6 µM	> 100 µM	> 48 µM	> 100 µM
CC(C)C(C=O)C(O)(C(F)(F)F)C(F)(F)F (stereo not given)	> 100 µM	> 100 µM	–	> 100 µM	> 100 µM	> 100 µM	> 100 µM	> 100 µM	> 100 µM	> 100 µM
CCOC(=O)C1=C(C)NC(c2ccccc2)=C(C(=O)OCc2ccccc2)C1C#Cc1ccccc1 (stereo not given)	> 100 µM	> 100 µM	> 100 µM	> 100 µM	> 100 µM	> 100 µM	> 100 µM	> 100 µM	> 100 µM	> 100 µM
Cc1cccc(N=Nc2ccc(O)c(CN(C)C)c2)c1	92.5 µM	> 100 µM	4.69 µM	26.9 µM	35.8 µM	52.7 µM	41.6 µM	> 100 µM	> 100 µM	> 100 µM
C=C1C(O)C2OC(=O)C(=C)C2C(OC(=O)/C(C)=C/C)CC2(C)OC2C2OC12 (stereo not given)	42.5 µM	27.2 µM	> 100 µM	29.7 µM	> 100 µM	26.2 µM	> 100 µM	> 100 µM	24.5 µM	> 100 µM
c1ccc(C(OCCN2CC3CCC(C2)N3)c2ccccc2)cc1	> 100 µM	> 100 µM	> 100 µM	> 100 µM	> 100 µM	> 100 µM	> 100 µM	> 100 µM	> 100 µM	> 100 µM
C1=Nc2ccc(cc2)-c2ccc(cc2)N=Cc2ccccc2OCc2cccc(n2)COc2ccccc21	33.1 µM	> 95.4 µM	> 100 µM	> 100 µM	> 100 µM	> 100 µM	> 66.3 µM	> 100 µM	> 100 µM	46.4 µM
CN1CN(c2ccccc2)C2(CCN(C(=O)OC(C)(C)C)CC2)C1=O	> 100 µM	> 100 µM	> 100 µM	> 100 µM	> 100 µM	> 100 µM	> 100 µM	> 100 µM	> 100 µM	> 100 µM
CN1C(=O)c2c(c3c4ccccc4n(C)c3c3c2c2ccccc2n3C)C1=O	> 100 µM	> 100 µM	> 100 µM	> 100 µM	> 100 µM	> 100 µM	> 100 µM	> 100 µM	> 100 µM	> 100 µM
CCc1c[n+]2c(cc1C1=CN3c4ccccc4[C@]45CCN6C/C(=C/CO)[C@H](C[C@H]64)[C@@H]([C@@H]1O)[C@H]35)-c1[nH]c3ccccc3c1CC2	> 50 µM	> 50 µM	> 50 µM	> 50 µM	> 50 µM	> 50 µM	> 50 µM	> 50 µM	> 50 µM	> 50 µM
CC(=O)O[C@H]1C(=O)[C@@]2(C)C(C(OC(=O)c3ccccc3)[C@]3(O)CC(OC(=O)C(O)C(NC(=O)c4cccc(Cl)c4)c4ccccc4)C(C)=C1C3(C)C)[C@]1(OC(C)=O)CO[C@@H]1C[C@@H]2O (stereo not given in full)	> 10 µM	> 10 µM	5.91 µM	> 10 µM	0.417 µM	> 10 µM	2.19 µM	> 10 µM	5.15 µM	> 10 µM
CCOP(=O)(OCC)C(Cc1cn(S(=O)(=O)c2ccc(C)cc2)cn1)C(=O)O (stereo not given)	> 100 µM	> 100 µM	> 100 µM	> 100 µM	> 100 µM	> 100 µM	> 100 µM	> 100 µM	> 100 µM	> 100 µM
COC(=O)c1cc(NC(=O)Cn2c3ccccc3c3ccccc32)cn1C	72.2 µM	71.3 µM	> 100 µM	> 100 µM	> 100 µM	> 100 µM	63.1 µM	89.2 µM	> 100 µM	> 100 µM
COc1cc(/C=[N+](\[O-])c2ccccc2Cl)ccc1OC(=S)S	> 100 µM	68.3 µM	–	> 100 µM	57.7 µM	> 100 µM	> 100 µM	> 100 µM	> 100 µM	> 100 µM
O=C1/C(=C/Cc2ccco2)N=C(c2ccccc2)N1c1nc2ccc(Sc3ccccc3)cc2[nH]1	38.5 µM	57.7 µM	44.2 µM	43.7 µM	23.5 µM	84.8 µM	> 100 µM	84.6 µM	54.6 µM	86.7 µM
O=C(O)Cn1cnc2c(=O)[nH]c(Nc3ccccc3)nc21	> 100 µM	> 100 µM	> 100 µM	> 100 µM	> 100 µM	> 100 µM	> 100 µM	> 100 µM	> 100 µM	> 100 µM
Cc1cc2nc3c(C)c4ccccc4c(C)n3c2cc1C	6.62 µM	> 10 µM	> 10 µM	3.61 µM	> 10 µM	7.8 µM	4.88 µM	> 10 µM	9.01 µM	> 10 µM
Nc1nc(Cl)cc(Oc2ccc(Cl)cc2)n1	> 100 µM	> 100 µM	> 100 µM	> 100 µM	> 100 µM	> 100 µM	> 100 µM	> 100 µM	> 100 µM	> 100 µM
Clc1cccc(C=NC23CC4CC(CC(C4)C2)C3)c1Cl	> 10 µM	> 10 µM	> 10 µM	> 10 µM	> 10 µM	> 10 µM	> 10 µM	> 10 µM	2.63 µM	> 10 µM
COc1cc([C@@H]2c3cc4c(cc3[C@H](OC3OC5COC(C(C)C)OC5C(O)C3O)C3COC(=O)[C@@H]32)OCO4)cc(OC)c1OC (stereo not given in full)	12.5 µM	20.2 µM	> 29.6 µM	27 µM	> 54.2 µM	8.55 µM	> 25.9 µM	> 100 µM	66.5 µM	> 40.6 µM
COC(=O)[C@@]1(Cc2ccc(OC(C)=O)cc2)Cc2cc3ccccc3n2N1	> 100 µM	> 100 µM	> 100 µM	> 100 µM	> 100 µM	> 100 µM	> 100 µM	> 100 µM	70.6 µM	> 100 µM
O=C(O)C(=Cc1ccc(-c2ccc([N+](=O)[O-])cc2)o1)C(=O)O	> 100 µM	> 100 µM	> 100 µM	> 100 µM	> 100 µM	> 100 µM	> 100 µM	> 100 µM	> 100 µM	> 100 µM
CCCCCCCCC/C=C1/CC(CO)(COC(=O)C2CCCCC2)OC1=O (stereo not given)	> 100 µM	> 100 µM	> 100 µM	> 100 µM	> 100 µM	> 100 µM	–	> 100 µM	> 100 µM	> 100 µM
COc1ccc2cc(CNCCOCCOCCNCc3ccc4cc(OC)ccc4c3)ccc2c1	2.19 µM	3.59 µM	1.24 µM	1.22 µM	1.21 µM	3.54 µM	3.03 µM	3.28 µM	2.29 µM	3.09 µM
Cc1ccc(S(=O)(=O)N(CC(O)COc2ccccc2)c2ccccc2Cl)cc1 (stereo not given)	32.4 µM	31.4 µM	40.4 µM	38.8 µM	31.7 µM	42.1 µM	33.2 µM	52 µM	35.1 µM	39.5 µM
O=c1oc2c(Cl)cc(Cl)cc2cc1-c1cn2c(n1)sc1ccccc12	> 100 µM	87.4 µM	55.6 µM	> 100 µM	> 100 µM	> 100 µM	> 100 µM	> 100 µM	53.1 µM	> 100 µM
Clc1ccc(CCNCCNC2(c3cc4ccccc4s3)CCCCC2)cc1Cl	3.65 µM	3.44 µM	5.39 µM	3.36 µM	3.83 µM	2.91 µM	–	2.81 µM	4.19 µM	3.83 µM
CCOC(=O)/C(C(N)=O)=C(/O)c1cnccn1	> 100 µM	> 100 µM	> 100 µM	> 100 µM	> 100 µM	> 100 µM	> 100 µM	> 100 µM	> 100 µM	> 100 µM
COc1cc2c(cc1OC)C/C(=N\O)c1cc(OC)c(OC)cc1/C=C\2	> 100 µM	97.1 µM	> 100 µM	25.6 µM	4.05 µM	17.3 µM	18 µM	> 85.3 µM	> 50.8 µM	> 65.5 µM
